Test results from article PMC12652113, “Fluorescent Albumin-Binding N-Propylbenzene Indolenine-Based Squaraines as Potential Candidates for Prostate Cancer Photodynamic Therapy Photosensitizers” (International Journal of Molecular Sciences, 2025).
“Also recorded” adds a separate entry of the source.

Tests used:
[1] = Singlet oxygen generation, 1,3-diphenylisobenzofuran (DPBF) assay; type: physicochemical; settings: DMSO; LED irradiation; relative to benzoselenazole squaraine reference
Protocol: The ability of the squaraine dyes to generate singlet oxygen was assessed using the 1,3-diphenylisobenzofuran (DPBF) assay. In this method, squaraine solutions were incubated with DPBF and irradiated for different time intervals, followed by the monitoring of absorbance at 410 nm. A progressive decrease in DPBF absorbance was observed upon irradiation for all synthesized compounds, confirming their ability to produce this reactive oxygen species. However, it should be emphasized that the reference squaraine dye induced a sharp reduction in DPBF absorbance within a short irradiation period, with the decay being limited only by its intrinsic photoinstability.
Singlet oxygen production was assessed by monitoring the bleaching of 1,3-diphenylisobenzofuran (DPBF) at 410 nm. Fresh solutions of squaraine dyes (20 µM) and DPBF (0.1 mM) were introduced into 96-well plates, and decreases in absorbance were recorded before and after irradiation at defined time intervals. Quantum yields of singlet oxygen generation (ΦΔ) were determined by comparing the slopes of DPBF degradation for the squaraine dyes [S(dye)] with those of a benzoselenazole squaraine reference dye [S(ref), ΦΔ = 0.10], according to established linear regression procedures (Equation (1)). In parallel, photodegradation of the squaraines was monitored by following changes in their absorbance over time, with normalization applied to enable direct comparison across samples.(1) ΦΔdye=ΦΔref × Sdye/Sref

[2] = Aggregation behavior (Vis absorption in phosphate buffer, with or without Triton X-100); type: physicochemical; settings: phosphate buffer vs DMSO
Protocol: Squaraine dyes were dissolved in dimethyl sulfoxide, whereas zinc phthalocyanine required dimethylformamide as a solvent. All stock solutions were prepared at 0.67 mM concentration and stored in the dark at 4 °C until further use. For spectroscopic characterization, 1.0 µM stock solutions of the squaraine dyes in dimethyl sulfoxide were serially diluted into a series of solvents (chloroform, dimethyl sulfoxide, methanol, and phosphate buffer) to obtain at least five defined concentrations. The absorption spectra of these dilutions were recorded and used to calculate molar extinction coefficients according to the Beer–Lambert law. Additional working solutions at a 1.0 µM concentration were prepared in dimethyl sulfoxide and buffer, and 1.0% Triton X-100 was added where required to investigate dye aggregation.

[3] = tested on: normal human dermal fibroblasts (NHDF); assay: MTT dark and light-induced cytotoxicity in NHDF; type: cell-based; settings: for IC50: Homo sapiens, 24 h incubation; for IC50 / Photodynamic ratio (PTR): NHDF; for Photodynamic ratio (PTR): IC50 dark/IC50 irradiated
Protocol: (§1) For potential applicability as photosensitizers in PDT, these candidates are expected to display cytotoxic effects only after photoactivation, namely, and preferably restricted to target tissue cells, without inducing damage to healthy counterparts. To evaluate this, prostate adenocarcinoma PC-3 cells and non-tumoral NHDF fibroblasts were incubated with increasing concentrations of the squaraine dyes for 24 h. Subsequently, the cells were irradiated using an LED system centered at 663 nm, a wavelength close to the absorption maximum of the monomeric dye forms. Twenty-four hours post-irradiation, cellular metabolic activity was assessed by the MTT assay.
(§2) The in cell photocytotoxicity of the squaraine dyes was assessed using the MTT assay. When cells reached 90–95% confluence, they were trypsinized using a trypsin-EDTA solution (0.125 g/L trypsin, 0.02 g/L EDTA), counted via trypan-blue exclusion in a Neubauer chamber, and diluted to 2 × 10^4 cells/mL. A 100 µL aliquot of this suspension was seeded into each well of 96-well plates and incubated for 48 h to allow for cell attachment and resumption of proliferation.
(§3) After this period, the medium was removed, and cells were treated with various concentrations of the squaraine dyes (0.01, 0.1, 1, 2.5, 5, and 10 µM) in the appropriate culture medium. […] Negative controls consisted of cells exposed only to culture medium. All experiments were performed in quadruplicate and independently repeated.
(§4) After 24 h of exposure to the dyes, the cells were subjected to two different irradiation conditions: the first group was not irradiated and was protected from ambient light for 21 min, and the second group was irradiated for 7 min.
(§5) Twenty-four hours post-irradiation, the culture medium was removed, cells were washed with 100 µL PBS, and 100 µL of MTT solution (5 mg/mL in serum- and antibiotic-free medium) was added per well. Cells were incubated for 4 h at 37 °C, after which the supernatant was discarded, and the formazan crystals were solubilized in dimethyl sulfoxide. Absorbance was measured at 570 nm using a Bio-Rad xMark microplate reader.
(§6) Cell viability was expressed as the percentage of absorbance in treated samples relative to the untreated negative control. Data were statistically analyzed by ordinary two-way ANOVA followed by the Šidák multiple comparisons test, comparing irradiated and non-irradiated conditions at the same concentration, with differences considered statistically significant at a p-value < 0.05. Half-maximal inhibitory concentration values reported in this work were obtained by fitting the data to a sigmoidal model with a 95% confidence interval. All assays were performed in quadruplicate and replicated independently at least twice. Phototoxicity and tumor selectivity ratios were quantified according to Equations (6) and (7):(6) PTR = IC50 dark condition/IC50 irradiated condition (7) TSR = IC50 for NHDF cells under irradiated condition/IC50 for cancer cell line under irradiated condition
(§7) Irradiation was performed using a light-emitting diode array centered at 663 ± 8 nm to match the absorption maximum of the dyes. The LED (Roithner; 8.3 mW radiant flux) was integrated into flat-bottom 96-well plates and powered by a regulated current source. The irradiance was 15.8 mW/cm^2, and the total energy delivered per well was 3.49 J after 7 min, ensuring precise light dosing for all experiments.

[4] = tested on: prostate adenocarcinoma (PC-3) cell line; assay: MTT dark and light-induced cytotoxicity in PC-3; type: cell-based, human; settings: for IC50: Homo sapiens, 24 h incubation; for tumor selectivity ratio (TSR): IC50 NHDF irradiated/IC50 PC-3 irradiated; for Photodynamic ratio (PTR): PC-3, IC50 dark/IC50 irradiated
Protocol: as §1, §2, §3, §4, §5, §6, §7

[5] = light or radiation study, Light, 7 min LED 663 nm, MTT 24 h post-irradiation
[6] = light or radiation study, PC-3, Light, 7 min LED 663 nm, MTT 24 h post-irradiation

| Compound | singlet oxygen quantum yield (ΦΔ) [1] | aggregation behavior [2] | IC50 [3, 5] | IC50 ([3]; Dark, MTT 24 h later) | Photodynamic ratio (PTR) [3] | IC50 [4, 6] | IC50 ([4]; PC-3, Dark, MTT 24 h later) | tumor selectivity ratio (TSR) [4] | Photodynamic ratio (PTR) [4] | reduction in viability ([3]; normal fibroblasts, irradiated, up to 2.5 μM) | reduction in viability ([4]; PC-3 cells, irradiated, 1.0 μM) |
| --- | --- | --- | --- | --- | --- | --- | --- | --- | --- | --- | --- |
| CNC1=C(C=C2N(CCCc3ccccc3)c3ccccc3C2(C)C)C(=O)C1=CC1=[N+](CCCc2ccccc2)c2ccccc2C1(C)C.[I-] [Dye 11, 2-{3-[3,3-Dimethyl-1-(3-phenylpropyl)indolin-2-ylidenemethyl]-2-(methylamino)-4-oxocyclobut-2-en-1-ylidenemethyl}-3,3-dimethyl-1-(3-phenylpropyl)-indol-1-ium Iodide] | <0.01 | coexistence of H- and J-type aggregates; also recorded: lowest tendency to aggregate | 3.24 µM | 6.57 µM | 2.0 | 0.09 µM | 1.44 µM | 36.0 | 16 |  |  |
| CC1(C)C(=CC2=C(N)C(=CC3=[N+](CCCc4ccccc4)c4ccccc4C3(C)C)C2=O)N(CCCc2ccccc2)c2ccccc21.[I-] [Dye 9, 2-{2-Amino-3-[3,3-dimethyl-1-(3-phenylpropyl)indolin-2-ylidenemethyl]-4-oxocyclobut-2-en-1-ylidenemethyl}-3,3-dimethyl-1-(3-phenylpropyl)-indol-1-ium Iodide] | <0.01 | coexistence of H- and J-type aggregates | 3.79 µM | 6.8 µM | 1.8 | 0.093 µM | 1.21 µM | 40.8 | 13 |  |  |
| CC1(C)C(=CC2=C([O-])C(=CC3=[N+](CCCc4ccccc4)c4ccccc4C3(C)C)C2=O)N(CCCc2ccccc2)c2ccccc21 [Dye 5, 4-[3,3-Dimethyl-1-(3-phenylpropyl)-indol-1-ium-2-ylmethylene]-2-[3,3-dimethyl-1-(3-phenylpropyl)indolin-2-ylidenemethyl]-3-oxocyclobut-1-en-1-olate] | <0.01 | coexistence of H- and J-type aggregates | 7.41 µM | > 10 µM | >1.4 | 0.898 µM | > 10 µM |  |  | ≤ 30% | approximately 60% |
| CC1(C)C(=CC2=C(NCc3ccc4ccc5cccc6ccc3c4c56)C(=CC3=[N+](CCCc4ccccc4)c4ccccc4C3(C)C)C2=O)N(CCCc2ccccc2)c2ccccc21.[I-] [Dye 14, 2-({3-[3,3-dimethyl-1-(3-phenylpropyl)indolin-2-ylidenemethyl]-4-oxo-2-[(pyren-1-ylmethyl)amino]cyclobut-2-en-1-ylidene}methyl)-3,3-dimethyl-1-(3-phenylpropyl)-indol-1-ium Iodide] | <0.01 | predominantly form J-aggregates | > 10 µM | > 10 µM |  | > 10 µM | > 10 µM |  |  |  |  |
